Test results as given in patent US7384657B2, “Composition of natural herb extract for treating cardiovascular disease and its method of preparation thereof” (priority 2004, dated 2008).
“Also recorded” adds a separate entry of the source. Read-outs that look alike come from different tables or passages of the source.

Columns and labels:
[1] = pituitary myocardial ischemia in rats, electrocardiac abnormality; type: in vivo
Text: (§1) The properties of Danshensu are studied.

[2] = dog model having myocardial infarction; type: in vivo
Text: as §1

[3] = toleration time in anoxic state in mice; type: in vivo
Text: as §1

[4] = internal distribution of Danshensu by HPLC after intravenous Danshen preparation; type: in vivo, domestic rabbit; details: after i.v. Danshen preparation
Description: HPLC is used to study the domestic rabbit's internal distribution and content of the Chinese Danshen preparation's Danshensu. […] Adrenal tissue's average is 14.15 μg/g (+0.33), liver's tissue average 17.69 μg/g (+4.44), lung's tissue average 19.73 μg/g (+4.00), heart's tissue average 12.30 μg/g (+2.18), brain's tissue average 5.45 μg/g (+0.60) and spleen's tissue average 4.66 μg/g (+0.68).

[5] = test system: isolated heart; assay: isolated heart: coronary blood flow, fibrinolysis
Text: as §1

[6] = test system: isolated pig's coronary artery; assay: isolated pig's coronary artery perfusion (modified Oglatree preparation)
Text: as §1
Effect of Danshensu [β-(3,4)-dihydroxyphenyl lactic acid] upon the isolated pig's coronary artery is studied. […] The method, which is different from the method of Oglatree isolated coronary artery preparation, is to have both ends of the isolated pig's coronary artery segment ligated to the perfusion cannula.
Test the same specimen by successively giving it 3 crescendo doses of morphine hydrochloride. Record the largest titer of P after each administration. Using Krbs-Henselait liquid to douche the perfusion system 3 times. When the basic line returns to normal, the effect is very obvious after the application of Danshensu (causing the medical concentration in the perfusion system turning into […]). Repeatedly administrate the same 3 crescendo doses of morphine hydrochloride successively like above. Observe the effect of Danshensu on the systole of coronary artery caused by morphine. Again, after the above-mentioned doses of Danshensu are applied, administrate repeatedly 4 crescendo doses of hydrochloric propanol. Observe the effect of Danshensu on the coronary artery systole caused by propanol. The sequence of administration resembles the above. In addition, after the application of Danshensu, repeat the administration by giving 3 crescendo doses of KCI and 3 crescendo doses of reserpine. […]

[7] = pharmacokinetics of Danshensu after auricular vein injection; type: in vivo, rabbits; details: 30 mg/kg i.v.
Description: Pharmacokinetics of Danshenu in the biological body is studied. After the selected 5 rabbits' auricular veins are injected with Danshensu (injection of 30 mg/kg), blood is drawn regularly every 15, 30, 60, 90, 120 and 150 minutes. Obtain blood plasma and manipulate like before. Determine concentration of the blood medication. Use blank plasma for controlling. According to the mean from the experimental data, with the use of the logarithm and time of Danshensu concentration, create chart which is a straight line.

[8] = test system: adenylate cyclase; assay: activation of dissolved adenylate cyclase; type: biochemical
Text: (§2) The effecter of β-receptor is the adenylate cyclase (AC). Excitant of the β-receptor can enable the AC to activate and the antagonist can cause it to inhibit. […] It points out puerarin is an antagonist of one type of β-receptors. It has the selective action on the heart's β-receptor. It can achieve various curative effects on the arrhythmia.

[9] = puerarin: patient's blood 6-K-PGF1a, HDL, TXB2; type: in vivo, human; details: patients
Text: Puerarin can even heighten the patient's blood 6-K-PGF1a [6-acetone-PGF1a (prostaglandin-stable metabolism product)] and High Density Lipid (HDL) level. […] As a result, it enables the coronary artery and the peripheral blood vessel to expand, and therefore, it resists angina pectoris, reduces blood pressure, lowers myocardial oxygen consumption and improves the Ischemic ECG and etc.

[10] = arrhythmia caused by chloroform and the adrenal gland; type: in vivo, domestic rabbit
Text: The effect of puerarin on the rhythm of heart is examined. […] Obviously, it also […] the mean of ventricular premature heartbeat and ventricular tachycardia caused by ouabin.

[11] = absorption, distribution and excretion of puerarin in rats; type: in vivo
Text: The pharmacokinetics of puerarin is also studied. Absorption and distribution of medication of Puerarin are studied. […] External experiment proves puerarin's destruction in the enterogastric tract is very minor, but can be metabolized by the tissue of blood, liver, kidney and etc. It is also able to integrate with the liver, kidney, lung and plasma protein. Pharmacokinetics parameter of the rats's intravenous injection indicates puerarin's distribution in the body is vast and clears up fast. It is not easy to store.
(§3) Metabolism of medication of Puerarin is studied. 24 hours after the rats taken puerarin orally, 1.85% and 35.7% excreted as urine and stool. After the intravenous injection, 37.62%, 7.39% and 3.65% are secreted from the urine, stool and bile respectively. Absorption, by orally taking, is very little. 36 hours after puerarin is orally taken by normal person, only 0.78% […] secrete from the urine; 72 hours after the oral taking, 73.3% secrete from the stool.

[12] = test system: artery's endothelial cell; assay: arterial endothelial cell culture; type: cell-based; details: puerarin 250 μg/ml, 6 hours, 36° C.
Description: The effect of puerarin on the arterial endothelial cell is also examined. Puerarin has very outstanding effect on the artery's endothelial cell. Add puerarin (250 μg/ml) to the cellular fluid, but no addition of puerarin in the control group. After 6 hours of culture at 36° C., determine the content of carboxylic proline in both the internal and the external fluid of the endothelial cells respectively. […] The content of carboxylic proline, in the […], drops to Experiment Group's 2.70±0.06 μg/ml and 2.43±0.21 μg/ml from 3.35±0.05 μg/ml and 2.68±0.15 μg/ml in the Control group's internal and external endothelial cells. With regards to osamine polysaccharide, it drops to Experiment Group's 0.95±0.12 μg/ml and 0.68±0.15 μg/ml from 1.77±0.12 μg/m and 1.57±0.08 μg/ml in the internal fluid of Control group. […] It regulates the permeability of the water solubility and the substance of plasma molecule. Besides having an effect on the selective barrier action, its complex enzyme system can synthesize and secrete many active substances such as PGI2.

[13] = puerarin drops in patients of acute myocardial infarction; type: in vivo, human
[14] = teratogenicity and mutagenicity in pregnant animals and male germ cells; type: in vivo, rats; details: 50 and 150 mg/kg
Description: Select 50 pregnant rats. Observe and analyze 450 pregnant mice. Choose 50 and 150 mg/kg as puerarin dosage. […] The deformation of appearance, organ or bone is not found in all the examined fetal mice. It proves neither the puerarin nor the solvent has mutagenic activity on the pregnant mice.

[15] = test system: TA97, TA98, TA100 and TA102; assay: Ames test; type: cell-based, typhoid Salmonella bacillus; details: 1, 5, 50, 500, 5000 μg per dish, S9 and non-S9
Description: Use TA97, TA98, TA100 and TA102 as testing strain; puerarin 1, 5, 50, 500, and 5000 μg as dish. In the experiment of S9 and non-S9, its reverse colonial mutation setting figure is basically the same, that is, mutation rate (MR)<2. It has no dosage-response relation. […] Use human microblood nutrient for culturing. Add human blood to the puerarin injection. Under the condition of isolated body, add S9 activation system, then, culture for 53 hours. […] Therefore, hereditary toxicity has not been indicated.

[16] = test system: polychromatic erythrocytes; assay: polychromatic erythrocytes micronucleus; type: in vivo; details: every dosage group
[17] = excretion of oral puerarin in normal person; type: in vivo, human
Description: as §3

[18] = single intravenous injection 5 mg/kg; cited from earlier work
[19] = test system: β-receptor; assay: radioactive ligand analysis on myocardial membrane; type: binding, rats
Text: as §2

[20] = mice and dog; cited from earlier work
[21] = puerarin in dog with acute myocardial ischemia / coronary blockage; type: in vivo
Description: Effect of Puerarin upon the heart is studied. The main effect of Puerarin Pur is to change the myocardial ischemia. Apply intervenous injection of puerarin to the dog which contracts the acute myocardial ischemia. […] After the aortic pressure is adjusted to the level of pre-administration, tension-time index and the rising speed of left ventricular pressure also return to the level of pre-administration.
5 minutes after the midpoint of the anterior branch of the dog's coronary artery encountering acute blockage, intravenous injection of puerarin 20 mg/kg is administrated. […] The function lasts 3˜4 hours. It has no effect on LVSD. 15 minutes after the administration, the ST drops obviously. […] Electrocardiographic index reduces clearly and the pulmonary incarceration has not risen.

O=C(O)[C@H](O)Cc1ccc(O)c(O)c1 [Danshensu, D(+) β-(3,4-dihydroxyphenyl) lactic acid]
electrocardiac abnormality of pituitary myocardial ischemia [1]: restore the electrocardiac abnormality
area suffered from myocardial infarction [2]: the area suffered from myocardial infarction is reduced
heart function [2]: the heart function is improved
toleration time in anoxic state [3]: prolong the toleration time in anoxic state
Danshensu content, adrenal tissue average [4]: 14.15 µg/g
Danshensu content, brain tissue average [4]: 5.45 µg/g
Danshensu content, heart tissue average [4]: 12.30 µg/g
Danshensu content, liver tissue average [4]: 17.69 µg/g
Danshensu content, lung tissue average [4]: 19.73 µg/g
Danshensu content, spleen tissue average [4]: 4.66 µg/g
fibrinolysis [5]: relatively weaker function in fibrinolysis
blood flow of coronary artery ([5]; isolated heart): increasing the blood flow of coronary artery
P ([6]; Danshensu 1×10^6 g/ml in perfusion system, 31 strips, 40 experiments): -2.54±0.48 mmHg
dilatation of coronary artery smooth muscle ([6]; isolated pig coronary artery): dilate the smooth muscle of coronary artery; also recorded: obvious dilatation effect
pharmacokinetic model [7]: single ventricular model
half-life ([7]; rabbit, in vivo, iv, 5 rabbits, read-out: biological half-life t1/2): 16.6 min

Puerarin
adrenal gland's activation of dissolved adenylate cyclase [8]: completely inhibit
blood 6-K-PGF1a and High Density Lipid (HDL) level [9]: heighten
ratio of TXB2/6-K-PGF1a [9]: reduces the ratio
arrhythmic time [10]: shorten the arrhythmic time
secreted from the bile ([11]; intravenous injection): 3.65%
secreted from the stool ([11]; intravenous injection): 7.39%
secreted from the urine ([11]; intravenous injection): 37.62%
tissue content ([11]; intravenous injection): the content in kidney is highest, blood plasma takes second place and the brain has lesser
oral absorption ([11]; oral): absorbed faster but not complete
excreted as stool ([11]; oral, 24 hours): 35.7%
excreted as urine ([11]; oral, 24 hours): 1.85%
medication volume retrieved from gastrointestinal substance and stool ([11]; oral, after 24 hours): 37.3 % of the volume administrated
carboxylic proline, external fluid of endothelial cells [12]: 2.43 ± 0.21 µg/mL
carboxylic proline, internal fluid of endothelial cells [12]: 2.70 ± 0.06 µg/mL
osamine polysaccharide, first value (internal fluid) [12]: 0.95 ± 0.12 µg/mL
osamine polysaccharide, second value [12]: 0.68 ± 0.15 µg/mL
myocardial index ([13]; 30 minutes and 2 hours after (p<0.01, P=0.05)): clearly reduces
genesis rate of infarction expansion ([13]; human, in vivo): obviously lowers
deformation of appearance, organ or bone of fetal mice [14]: not found
survival fetal number, absorption fetal number, weight, length, tail length versus control [14]: no obvious difference
mutation rate (MR) [15]: < 2
occurrence rate of polychromatic erythrocytes micronucleus versus negative contrast [16]: no obvious difference
secreted from the urine ([17]; 36 hours): 0.78%
secreted from the stool ([17]; 72 hours): 73.3%
pharmacokinetic model [18]: 2-ventricle open model
competition with the labeled ligand ([19]; conjugated competition): able to compete with the labeled ligand
maximum combination capacity of the β-receptor ([19]; rats's myocardial membrane): clearly reduce the maximum combination capacity
pharmacokinetic model [20]: 3-ventricle open model
lowering of LVSD ([21]; 20 mg/kg i.v., 5 minutes after blockage): 10.14%
myocardial infarction scope (N-BT) ([21]; 20 mg/kg i.v., 6 hours later): reduces significantly
aortic pressure ([21]; intravenous injection): lower the aortic pressure
release of myocardial CPK ([21]; ischemia and reperfusion): lowers the release of myocardial CPK
